Laboratory results as given in patent US7479489B2, “Heterocyclic antiviral compounds” (Roche Palo Alto LLC, priority 2004, dated 2009).

Row | Compound | melting point
1 | O=c1c(C2=CS(=O)(=O)c3ccccc3N2)c(O)c2cc(Cl)ccc2n1CCC1CC1 | 227 to 229 °C
2 | O=c1c(C2=CS(=O)(=O)c3ccccc3N2)c(O)c2ccccc2n1Cc1ccccc1F | > 200 °C
3 | CC(C)(C)[C@H]1C(O)=C(C2=CS(=O)(=O)c3cc([N+](=O)[O-])ccc3N2)C(=O)N1Cc1ccc(F)cc1 | 138 to 147 °C
4 | NC(=O)CCOc1ccc2c(c1)S(=O)(=O)C=C(c1c(O)c3cc(F)ccc3n(CCC3CC3)c1=O)N2 | > 250 °C
5 | Cc1ccc2c(c1)c(O)c(C1=CS(=O)(=O)c3ccccc3N1)c(=O)n2Cc1ccc(F)cc1.[Na] | > 250 °C
6 | CN1C(c2nc(Cc3ccc(F)cc3)c3ccc(F)cc3c2O)=CS(=O)(=O)c2cc(Cl)ccc21 | 254 to 256 °C
7 | CC(C)CCn1c(=O)c(C2=CS(=O)(=O)c3ccc(C#N)cc3N2)c(O)c2ccccc21 | > 250 °C
8 | CNC(=O)Nc1ccc2c(c1)S(=O)(=O)C=C(c1c(O)c3cc(F)ccc3n(CCC3CC3)c1=O)N2 | > 220 °C
9 | CC[C@H](C)[C@H]1C(O)=C(C2=CS(=O)(=O)c3ccccc3N2)C(=O)N1Cc1ccccc1 | 88 to 95 °C
10 | CC(C)(C)[C@H]1C(O)=C(C2=CS(=O)(=O)c3cc(NS(C)(=O)=O)ccc3N2)C(=O)N1CCC1CC1 | 140 to 145 °C
11 | COc1ccc2c(c1)c(O)c(C1=CS(=O)(=O)c3ccccc3N1)c(=O)n2CCC1CC1 | 220 to 221 °C
12 | CN1C(c2nc(Cc3ccc(F)cc3)c3ccccc3c2O)=CS(=O)(=O)c2cc(Cl)ccc21 | > 275 °C
13 | CC(C)(C)[C@H]1C(O)=C(C2=CS(=O)(=O)c3cc(NS(N)(=O)=O)ccc3N2)C(=O)N1Cc1ccc(F)cc1 | 150 to 156 °C
14 | CC(C)(C)[C@H]1C(O)=C(C2=CS(=O)(=O)c3cc(N)ccc3N2)C(=O)N1Cc1ccc(F)cc1 | 146 to 155 °C
15 | O=C1C(C2=CS(=O)(=O)c3ccccc3N2)=C(O)[C@H](C2CCCCC2)N1Cc1ccc(F)cc1.[Na] | > 250 °C
16 | Nc1ccc2c(c1)S(=O)(=O)C=C(c1c(O)c3ccccc3n(CCC3CC3)c1=O)N2 | > 250 °C
17 | CN(c1ccc2c(c1)S(=O)(=O)C=C(c1c(O)c3cc(F)ccc3n(CCC3CC3)c1=O)N2)S(C)(=O)=O | 208 to 212 °C
18 | CC[C@H](C)[C@H]1C(O)=C(C2=CS(=O)(=O)c3ccccc3N2)C(=O)N1CCC(C)C | 72 to 80 °C
19 | COc1cc(CN2C(=O)C(C3=CS(=O)(=O)c4cc(NS(C)(=O)=O)ccc4N3)=C(O)[C@@H]2C(C)(C)C)ccc1F | 175 to 180 °C
20 | O=c1c(C2=CS(=O)(=O)c3cc(OCc4ccccc4)ccc3N2)c(O)c2cc(F)ccc2n1Cc1ccc(F)cc1 | 242 to 244 °C
21 | CC(C)CCN1C(=O)C(C2=CS(=O)(=O)c3ccccc3N2)=C(O)[C@@H]1C(C)(C)C | 85 to 87 °C
22 | Cc1ccc2c(c1)c(O)c(C1=CS(=O)(=O)c3ccccc3N1)c(=O)n2Cc1ccc(F)cc1 | 247 to 249 °C
23 | O=C1C(C2=CS(=O)(=O)c3ccccc3N2)=C(O)[C@H](C2CCCCC2)N1Cc1ccc(F)cc1 | 180 °C (dec.)
24 | CC(C)CCN1C(=O)C(C2=CS(=O)(=O)c3ccccc3N2)=C(O)[C@@H]1C1CCCCC1 | 98 to 100 °C
25 | CC(C)C[C@H]1C(O)=C(C2=CS(=O)(=O)c3ccccc3N2)C(=O)N1Cc1ccc(F)cc1 | 160 °C (dec.)
26 | Cc1noc(C)c1S(=O)(=O)Nc1ccc2c(c1)S(=O)(=O)C=C(c1c(O)c3cc(F)ccc3n(CCC3CC3)c1=O)N2 | 150 to 157 °C
27 | CC(C)CCn1c(=O)c(C2=CS(=O)(=O)c3ccc(Cl)cc3N2)c(O)c2ccccc21 | 90 to 110 °C
28 | CC(C)CCn1c(=O)c(C2=CS(=O)(=O)c3ccccc3N2)c(O)c2cc(F)cnc21 | 90 to 112 °C
29 | CC(C)CCn1c(=O)c(C2=CS(=O)(=O)c3ccccc3N2)c(O)c2cc(Cl)ccc21 | 194 to 197 °C
30 | CC(C)(C)[C@H]1C(O)=C(C2=CS(=O)(=O)c3cc(N)ccc3N2)C(=O)N1CCC1CC1 | 105 to 110 °C

Other lines, results leading:

Row | melting point | Compound
31 | 184 to 203 °C | CS(=O)(=O)Nc1ccc2c(c1)S(=O)(=O)C=C(c1c(O)c3cc(F)ccc3n(CC3CCCCC3)c1=O)N2
32 | 166 to 174 °C | CS(=O)(=O)Nc1ccc2c(c1)S(=O)(=O)C=C(c1c(O)c3cc(F)ccc3n(Cc3ccc(F)c(Cl)c3)c1=O)N2
33 | 174 to 186 °C | CS(=O)(=O)Nc1ccc2c(c1)S(=O)(=O)C=C(c1c(O)c3cc(F)ccc3n(Cc3cccnc3)c1=O)N2
34 | > 250 °C | CS(=O)(=O)Nc1ccc2c(c1)S(=O)(=O)C=C(c1c(O)c3cc(F)ccc3n(CCC3CC3)c1=O)N2.[Na]
35 | > 250 °C | N#Cc1cccc(Cn2c(=O)c(C3=CS(=O)(=O)c4ccccc4N3)c(O)c3cc(F)ccc32)c1.[Na]
36 | > 250 °C | N#Cc1cccc(Cn2c(=O)c(C3=CS(=O)(=O)c4ccccc4N3)c(O)c3cc(F)ccc32)c1
37 | 214 to 218 °C | CN(c1ccc2c(c1)S(=O)(=O)C=C(c1c(O)c3cc(F)ccc3n(Cc3ccc(F)cc3)c1=O)N2)S(C)(=O)=O
38 | > 250 °C | COc1ccc2c(c1)S(=O)(=O)C=C(c1c(O)c3cc(F)ccc3n(Cc3ccc(F)cc3)c1=O)N2
39 | 148.2 to 149.4 °C | CS(=O)(=O)Nc1ccc2c(c1)S(=O)(=O)C=C(c1c(O)c3cc(F)ccc3n(Cc3ccc(F)c(F)c3)c1=O)N2
40 | > 240 °C | CNC(=O)COc1ccc2c(c1)S(=O)(=O)C=C(c1c(O)c3cc(F)ccc3n(Cc3ccc(F)cc3)c1=O)N2
41 | 230 to 235 °C | O=c1c(C2=CS(=O)(=O)c3ccccc3N2)c(O)c2cc(F)ccc2n1Cc1ccc(F)c(F)c1.[Na]
42 | 200 to 207 °C | COC(=O)COc1ccc2c(c1)S(=O)(=O)C=C(c1c(O)c3cc(F)ccc3n(Cc3ccc(F)cc3)c1=O)N2
43 | > 250 °C | CN(C)C(=O)COc1ccc2c(c1)S(=O)(=O)C=C(c1c(O)c3cc(F)ccc3n(Cc3ccc(F)cc3)c1=O)N2
44 | 230 to 235 °C | O=c1c(C2=CS(=O)(=O)c3ccccc3N2)c(O)c2cc(F)ccc2n1Cc1ccc(F)c(F)c1
45 | > 250 °C | CCCS(=O)(=O)Nc1ccc2c(c1)S(=O)(=O)C=C(c1c(O)c3cc(F)ccc3n(CCC3CC3)c1=O)N2.[Na]
46 | 145 to 155 °C | O=c1c(C2=CS(=O)(=O)c3cc(NS(=O)(=O)C4CC4)ccc3N2)c(O)c2cc(F)ccc2n1CCC1CC1
47 | > 250 °C | Nc1ccc2c(c1)S(=O)(=O)C=C(c1c(O)c3cc(F)ccc3n(Cc3ccc(F)cc3)c1=O)N2
48 | 167 to 169 °C | CS(=O)(=O)Nc1ccc2c(c1)S(=O)(=O)C=C(c1c(O)c3cc(F)ccc3n(Cc3ccncc3)c1=O)N2.O=C(O)C(F)(F)F
49 | 145 to 150 °C | CCCS(=O)(=O)Nc1ccc2c(c1)S(=O)(=O)C=C(c1c(O)c3cc(F)ccc3n(CCC3CC3)c1=O)N2
50 | > 200 °C | O=c1c(C2=CS(=O)(=O)c3cc(NS(=O)(=O)c4ccccc4)ccc3N2)c(O)c2cc(F)ccc2n1CCC1CC1
51 | 185.8 to 187 °C | CS(=O)(=O)Nc1ccc2c(c1)S(=O)(=O)C=C(c1c(O)c3cc(F)ccc3n(Cc3ccc(F)c(C(F)(F)F)c3)c1=O)N2
52 | 205 to 219 °C | CC(C)CCn1c(=O)c(C2=CS(=O)(=O)c3cc(NS(C)(=O)=O)ccc3N2)c(O)c2cc(F)ccc21
53 | > 250 °C | CC(=O)Nc1ccc2c(c1)S(=O)(=O)C=C(c1c(O)c3cc(F)ccc3n(Cc3ccc(F)cc3)c1=O)N2
